In brackets after ≈: the same amount, converted by molar mass. Structures can show the parent of a compound that is named as a salt.
Legend:
COLON 26 = test: Murine Colon 26 Advanced, Metastatic Tumor; assay type: in vivo, murine (CD2F1 mice)
Protocol: (§1) Murine Tumor Standard Pharmacological Test Procedures
Murine Colon 26 Advanced, Metastatic Tumor
CD2F1 mice are injected i.p. with 5×10^5 tumor cells on Day 0 of the test. […]

A2780 S = test: In vitro cytotoxicity, two cell line test procedure (A2780 S); assay type: cell-based; settings: Homo sapiens, A2780S; 48 hours exposure, sulforhodamine B
Protocol: (§2) Description of the two cell line test procedure
(§3) A2780 S and A2780 DDP cells [Biochemical and Molecular Properties of Cisplatin-resistant A2780 Cells Grown in Folinic Acid; Y. Lu, J. Hnan, and K. Scanlon, J. Biol. Chem., 263, 4891-4894, 1988.] are grown in RPMI 1640 medium containing 5% fetal calf serum, 50 μg/ml streptomycin, 50 units/ml penicillin, 50 μg/ml gentamycin, 0.03% L-glutamine, 1 nM estradiol, 1 nM testosterone, 5 μg/mlinsulin, 5 μg/ml transferrin, and 5 ng/ml selenous acid, at 37° C., in a humidified atmosphere, containing 5% CO2. Experiments are done in the same media.
(§4) Cells are plated at the concentration of 5×10^4 /ml on Day 0 of the experiment. On Day one control cells are fixed with trichloroacetic acid and 5 ten fold dilutions of tested compounds are added, in duplicates, to the remaining cells. On Day 3 (48 hours exposure to drugs) all cells are fixed with trichloroacetic acid, stained with 0.4% sulforhodamine B, and absorbency is read at 520 nm. The IC50s (concentration causing 50% inhibition) are determined for each drug.

A2780 DDP = test: In vitro cytotoxicity, two cell line test procedure (A2780 DDP); assay type: cell-based; settings: Homo sapiens, 48 hours exposure, sulforhodamine B, cisplatin-resistant
Protocol: as §2, §3, §4

P388 [1] = test: Murine P388 Leukemia; assay type: in vivo, murine (CD2F1 mice); settings: days 1,5,9
Protocol: as §1
CD2F1 mice are injected i.p. with 1×10^6 tumor cells on Day 0 of the test. Drugs are administered i.p. on Days 1, 5, and 9 after the tumor implantation.

LS174T = test: Human Tumor Xenograft Standard Pharmacological Test Procedure; assay type: in vivo, human tumor in athymic nude mice; settings: days 1,5,9
Description: Human Tumor Xenograft Standard Pharmacological Test Procedure

P388 [2] = test: Murine P388 Leukemia; assay type: in vivo, murine (CD2F1 mice); settings: 200 mg/kg i.p., days 1,5
[3] = Denny et al., Mutation Research 232: 233 (1990); cited from earlier work
P388 [4] = settings: Denny et al., Mutation Research 232: 233 (1990); cited from earlier work

Row | SMILES | IC50 (A2780 S) [µg/mL] | IC50 (A2780 DDP) [µg/mL] | also measured
1 | COc1cccc2c1C(=O)c1c(O)c3c(c(O)c1C2=O)C[C@@](O)(C(=O)CO)C[C@@H]3O[C@H]1C[C@H](N)[C@H](O)[C@H](C)O1 [Adriamycin, reference compound] | – | – | % ILS (COLON 26; 4 mg/kg i.p., days 5,9,14): +71 % ILS
2 | CN(C)CCNC(=O)c1cccn2c(=O)c3cc(-c4cccc(N)c4)ccc3nc12 [Example 13, 11H-Pyrido[2,1-b]quinazoline-6-carboxamide, 2-(3-aminophenyl)-N-[2-(dimethylamino)ethyl]-11-oxo] | 0.4 (≈ 0.996 µM) | 3.7 (≈ 9.22 µM) | % ILS (P388 [1]; 25 mg/kg i.p.): +4 % ILS; % ILS (P388 [1]; 50 mg/kg i.p.): +2 % ILS; % ILS (P388 [1]; 100 mg/kg i.p.): +20 % ILS; % ILS (P388 [1]; 200 mg/kg i.p.): +57 % ILS; % ILS (COLON 26; 100 mg/kg i.p., days 5,9,13): +18 % ILS; % ILS (COLON 26; 200 mg/kg i.p., days 5,9,13): +24 % ILS; % ILS (COLON 26; 250 mg/kg i.p., days 5,9,13): +35 % ILS; % T/C (relative tumor growth treated/placebo) (LS174T; 250 mg/kg i.p.): 59 % T/C; % T/C (relative tumor growth treated/placebo) (LS174T; 300 mg/kg i.p.): 44 % T/C
3 | CN(C)CCNC(=O)c1cccn2c(=O)c3cc(-c4ccccc4-c4ccccc4)ccc3nc12 [Example 14, 11H-Pyrido[2,1-b]quinazoline-6-carboxamide, 2-[1,1'biphenyl]-2-yl-N-[2-(dimethylamino)ethyl]-11-oxo] | 4.4 (≈ 9.51 µM) | 4.8 (≈ 10.4 µM) | –
4 | CN(C)CCNC(=O)c1cccn2c(=O)c3cc(-c4cccc(-c5ccccc5)c4)ccc3nc12 [Example 15, 11H-Pyrido[2,1-b]quinazoline-6-carboxamide, 2-[1,1'-biphenyl]-3-yl-N-[2-(dimethylamino)ethyl]-11-oxo] | 0.6 (≈ 1.3 µM) | 0.8 (≈ 1.73 µM) | % ILS (P388 [1]; 50 mg/kg i.p.): +8 % ILS; % ILS (P388 [1]; 100 mg/kg i.p.): +2 % ILS; % ILS (P388 [2]): -40 % ILS
5 | CN(C)CCNC(=O)c1cccn2c(=O)c3cc(-c4cc5ccccc5c5ccccc45)ccc3nc12 [Example 16] | 4.1 (≈ 8.43 µM) | 5.3 (≈ 10.9 µM) | –
6 | CN(C)CCNC(=O)c1cccn2c(=O)c3cc(-c4cccc5ccccc45)ccc3nc12 [Example 17, 11H-pyrido[2,1-b)quinazoline-6-carboxamide, N-[2-(dimethylamino)ethyl]-2-(1-naphthalenyl)-11-oxo] | 4.6 (≈ 10.5 µM) | 4.7 (≈ 10.8 µM) | –
7 | CN(C)CCNC(=O)c1cccn2c(=O)c3cc(-c4cccc(C(F)(F)F)c4)ccc3nc12 [Example 18] | 1.1 (≈ 2.42 µM) | 4.2 (≈ 9.24 µM) | –
8 | COc1ccc(-c2ccc3nc4c(C(=O)NCCN(C)C)cccn4c(=O)c3c2)cc1 [Example 19, 11H-Pyrido[2,1-b]quinazoline-6-carboxamide, N-[2-(dimethylamino)ethyl]-2-(4-methoxyphenyl)-11-oxo] | 4.3 (≈ 10.3 µM) | 3.4 (≈ 8.16 µM) | % ILS (P388 [1]; 50 mg/kg i.p.): -9 % ILS; % ILS (P388 [1]; 100 mg/kg i.p.): +4 % ILS; % ILS (P388 [1]; 200 mg/kg i.p.): +6 % ILS
9 | CN(C)CCNC(=O)c1cccn2c(=O)c3cc(-c4cc(C(F)(F)F)cc(C(F)(F)F)c4)ccc3nc12 [Example 20, 11H-Pyrido[2,1-b]quinazoline-6-carboxamide, 2-[3,5-bis(trifluoromethyl)phenyl]-N-[2-(dimethylamino)ethyl]-11-oxo] | 3.8 (≈ 7.27 µM) | 3 (≈ 5.74 µM) | –
10 | CN(C)CCNC(=O)c1cccn2c(=O)c3cc(-c4cccc(N(C)C)c4)ccc3nc12 [Example 21] | 0.2 (≈ 0.466 µM) | 0.5 (≈ 1.16 µM) | –
11 | Nc1cccc(-c2ccc3nc4c(C(=O)NCCNCCO)cccn4c(=O)c3c2)c1 [Example 24, 11H-Pyrido [2,1-b]quinazoline-6-carboxamide, 2-(3-aminophenyl)-N-[2-[(2-hydroxyethyl)amino]ethyl]-11-oxo-trihydrochloride] | 0.6 | 2.1 | % ILS (P388 [1]; 25 mg/kg i.p.): +12 % ILS; % ILS (P388 [1]; 50 mg/kg i.p.): +4 % ILS; % ILS (P388 [1]; 100 mg/kg i.p.): +4 % ILS; % ILS (P388 [1]; 200 mg/kg i.p.): 0 % ILS; % ILS (COLON 26; 200 mg/kg i.p., days 5,9,13): +24 % ILS; % ILS (COLON 26; 300 mg/kg i.p., days 5,9,13): -24 % ILS
12 | O=C(NCCNCCO)c1cccn2c(=O)c3cc(-c4ccccc4)ccc3nc12 [Example 26, 11H-pyrido[2,1-b]quinazoline-6-carboxamide, N-[2-[(2-hydroxyethyl)amino]-ethyl]-11-oxo-2-phenyl, dihydrochloride] | 0.8 | 3.5 | –
13 | Nc1ccccc1-c1ccc2nc3c(C(=O)NCCNCCO)cccn3c(=O)c2c1 [Example 30, 11H-Pyrido[2,1-b]quinazoline-6-carboxamide, 2-(2-aminophenyl)-N-[2-[(2-hydroxyethyl)amino]ethyl]-11-oxo-trihydrochloride] | 4.8 | 6.9 | –
14 | CN(C)CCNC(=O)c1cccn2c(=O)c3ccc(-c4cccc(N)c4)cc3nc12 [Example 35, 11H-Pyrido[2,1-b]quinazoline-6-carboxamide, 3-(3-aminophenyl)-N-[2-(dimethylamino)ethyl]-11-oxo] | 0.5 (≈ 1.25 µM) | 0.4 (≈ 0.996 µM) | –
15 | CN(C)CCNC(=O)c1cccn2c(=O)c3ccccc3nc12 [I, N-[2-(dimethylamino)ethyl]-11-oxo-11H-pyrido[2,1-b]quinalzoline-6-carboxamide] | – | – | in vitro activity [3]: showed some in vitro activity; activity in P388 mouse model (P388 [4]): inactive in a P388 mouse model
16 | CC[C@]1(O)C[C@H]2CN(CCc3c([nH]c4ccccc34)[C@@](C(=O)OC)(c3cc4c(cc3OC)N(C=O)[C@H]3[C@@](O)(C(=O)OC)[C@H](OC(C)=O)[C@]5(CC)C=CCN6CC[C@]43[C@@H]65)C2)C1 [Vincristine, reference compound] | – | – | % ILS (P388 [1]; 0.8 mg/kg i.p.): +114 % ILS; % T/C (relative tumor growth treated/placebo) (LS174T; 1.0 mg/kg i.p.): 52 % T/C

Reference: patent publication US5914327A, “Biaryl-pyridoquinazolinone derivatives as anti-cancer agents” (American Cyanamid Company, priority 1997, dated 1999)
